From patent US7189383B2, “Radioactively labelled amino acid analogues, their preparation and use” (Mallinckrodt Inc., priority 2002, dated 2007)

Key:
R1M cells = assay: Preliminary uptake experiments in R1M cells in vitro; format: cell-based; settings: buffer simulating in vivo conditions
Text: The inventors considered based on the results obtained with ^18F-FET and their own results with 2-^123I-Phe and 2-^123I-Tyr that the aromatic amino acid properties are conserved after substitution of an O-ethyl group and even in the presence of a voluminous iodine atom. This invention is thus based on the new approach to introduce an alkyl side chain on the phenyl ring to facilitate introduction of the radioactive atom. They thus provided an ^18F-alkyl-phenyl structure in phenylalanine and tyrosine, either ortho, meta or para. Examples are ^18F-CH[…] or ^18F-CH2-CH[…] and 2-^18F-CH[…] or 2-^18F-CH2-CH[…]. This reduces the labelling chemistry to direct conventional nucleophilic aliphatic substitution on the alkylphenylic side branch of the L-amino acid. In this approach cumbersome stereospecific synthesis is not required. The same strategy was followed for the radio-fluorination of the aliphatic amino acids leucine and isoleucine. […] Since aliphatic-substituted F hardly changes the pharmacology, it follows that these aliphatic amino acids are also suitable molecules for radio-fluorination.

[1] = target: T1, L-transport system 1 (LAT1) (Rattus norvegicus, UniProt Q63016); assay: Inhibition of L-3H-phenylalanine uptake in rat rhabdomyo-sarcoma (R1M) cells in vitro; format: cell-based
T1 construct: endogenous in cells; host or cells: R1M rat rhabdomyosarcoma cells
Experimental: FIG. 1: Inhibition of ^3H-Phe/Phe uptake in R1M cells in vitro by L-2-F-methyl-PHE. The common intercept proves that the inhibition is competitive and that L-2-F-methyl-Phe uses the same transport system as L-Phe.
The affinity of L-2-F-methyl-phenylalanine for uptake by the L-transport system 1 (LAT1) in cancer cells (rat rhabdomyo-sarcoma cells) was determined by measuring the inhibition of the uptake of L-^3H-phenylalanine after 15 minutes incubation in HEPES buffer of pH 7.4 containing appropriate amounts of L-phenylalanine and of L-2-F-methyl-phenylalanine. The uptake was saturable and followed the typical Michaelis-Menten relation allowing to draw Lineweaver-Burk (FIG. 1) plots.

[2] = system: RIM tumour (rhabdomyo-sarcoma); assay: In vivo evaluation of SPECT tracers in RIM tumour (rhabdomyo-sarcoma)-bearing rats; design: species or system rat
Text: In the research that led to the invention two new potential SPECT tracers, 2-^123I-tyrosine (2-^123I-Tyr) and 2-^123-I-phenylalanine, were developed.

R1M tumour = assay: PET of R1M tumour bearing rat after intravenous injection; format: in vivo; settings: 120 Mbq intravenously, FIG. 2
Text: FIG. 2: PET of R1M tumour bearing rat. The tumour is visible at the upper right, the pancreas in the middle and the bladder under. 120 Mbq L-2-^18F-methyl-phenylalanine was intravenously injected.
In Vivo Rat Evaluation of L-2-18F-methyl-phenylalanine in a R1M Tumour Bearing Rat by Means of PET
The latter is typical for rodent.

T1 sequence (Q63016 whole entry): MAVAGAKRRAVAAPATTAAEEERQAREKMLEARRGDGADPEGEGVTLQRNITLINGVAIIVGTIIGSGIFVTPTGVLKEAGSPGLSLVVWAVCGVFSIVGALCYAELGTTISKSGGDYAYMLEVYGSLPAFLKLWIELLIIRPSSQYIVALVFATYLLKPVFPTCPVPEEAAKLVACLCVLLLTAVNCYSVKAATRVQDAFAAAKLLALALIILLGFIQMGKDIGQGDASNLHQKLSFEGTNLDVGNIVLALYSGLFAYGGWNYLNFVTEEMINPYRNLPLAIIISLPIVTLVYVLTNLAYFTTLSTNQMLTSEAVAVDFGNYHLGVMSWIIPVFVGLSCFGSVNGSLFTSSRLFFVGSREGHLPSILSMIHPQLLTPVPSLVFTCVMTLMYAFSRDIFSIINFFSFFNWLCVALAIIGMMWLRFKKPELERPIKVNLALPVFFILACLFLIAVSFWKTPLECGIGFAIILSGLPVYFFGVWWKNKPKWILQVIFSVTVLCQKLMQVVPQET
T1 sequence (Q794F9 whole entry partner): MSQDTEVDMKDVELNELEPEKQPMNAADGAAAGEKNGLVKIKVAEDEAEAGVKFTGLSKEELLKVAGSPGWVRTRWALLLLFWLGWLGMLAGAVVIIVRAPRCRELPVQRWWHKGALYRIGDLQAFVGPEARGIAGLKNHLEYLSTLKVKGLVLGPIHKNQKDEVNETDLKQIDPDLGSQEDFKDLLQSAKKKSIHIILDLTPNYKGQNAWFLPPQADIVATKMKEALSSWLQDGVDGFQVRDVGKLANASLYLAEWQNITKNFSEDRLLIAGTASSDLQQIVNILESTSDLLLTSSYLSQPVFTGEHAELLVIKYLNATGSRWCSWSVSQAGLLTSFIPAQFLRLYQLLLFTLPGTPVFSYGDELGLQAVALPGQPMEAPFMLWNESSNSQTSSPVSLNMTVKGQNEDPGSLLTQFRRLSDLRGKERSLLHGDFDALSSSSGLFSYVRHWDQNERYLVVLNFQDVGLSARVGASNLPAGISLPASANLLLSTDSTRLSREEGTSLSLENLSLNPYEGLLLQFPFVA

Molecule: ^3H-isoleucine
- uptake in R1M cells (R1M cells): comparable with 3H-Tyr and ^3H-Phe

Molecule: N[C@@H](Cc1ccccc1)C(=O)O [L-phenylalanine]
- Km ([1]; same conditions: 15 minutes incubation, HEPES buffer pH 7.4, rat rhabdomyo-sarcoma cells): 65 µM

Molecule: N[C@@H](Cc1ccccc1[123I])C(=O)O [2-^123-I-phenylalanine]
- activity in the kidneys relative to IMT ([2]; rat, in vivo): 10 times less
- high brain uptake observed ([2]; rat, in vivo): no
- renal accumulation ([2]; rat, in vivo): no renal accumulation
- uptake in the tumours ([2]; rat, in vivo): high uptake

Molecule: N[C@@H](Cc1ccccc1CF)C(=O)O [L-2-F-methyl-phenylalanine]
- Ki ([1]; 15 minutes incubation, HEPES buffer pH 7.4, rat rhabdomyo-sarcoma cells): 76 µM
- type of inhibition of 3H-Phe/Phe uptake (Lineweaver-Burk plots) ([1]; R1M cells in vitro, FIG. 1): competitive

Molecule: CC(C)C[C@H](N)C(=O)O [^3H-leucine]
- uptake in R1M cells (R1M cells): comparable with 3H-Tyr and ^3H-Phe

Molecule: N[C@@H](Cc1ccccc1C[18F])C(=O)O [L-2-18F-methyl-phenylalanine]
- accumulation in the kidneys or other organs (PET) (R1M tumour): No accumulation
- route of clearance (PET) (R1M tumour): cleared through the kidneys to the bladder
- uptake in the tumour and pancreas (PET) (R1M tumour): high uptake

Molecule: N[C@@H](Cc1ccc(O)cc1[123I])C(=O)O [2-^123I-tyrosine]
- activity in the kidneys relative to IMT ([2]; RIM tumour-bearing rats): 10 times less
- high brain uptake observed ([2]; RIM tumour-bearing rats): no
- renal accumulation ([2]; RIM tumour-bearing rats): no renal accumulation
- uptake in the tumours ([2]; RIM tumour-bearing rats, comparable with IMT): high uptake
